# Source: patent US20260294874A1, “COMPOSITIONS COMPRISING MODULATORS OF RIBONUCLEOPROTEIN GRANULE FORMATION AND DISSOLUTION AND METHODS OF USE THEREOF” (University of Virginia Patent Foundation, priority 2023, published 2026)
# “Also recorded” adds a separate entry of the source.
# Key:
# Assay type in all cases: cell-based
# [1] = system: stress granules (G3BP1 foci) in HeLa cells; experiment: Immunofluorescence phenotypic screen for stress granules (α-G3BP1) in stressed HeLa cells; conditions: 2 h
# Protocol: SuTEx compound treatments. Prior to treatments, cells were washed twice with warm phosphate-buffered saline (PBS) and exchanged with serum-free DMEM (supplemented with 1% L-glutamine) for at least 30 minutes at 37° C. with 5% CO2. Compounds were then added as 1000×DMSO stocks (10 μL for 10 cm dishes and 3 μL for 6-well dishes), plates were mixed gently, and cells were incubated for two hours. All compounds were thoroughly vortexed and sonicated for five minutes prior to addition to ensure complete solvation. For microscopy experiments, cultures were seeded at 150,000 cells in 3 mL of DMEM in 6-well THERMO SCIENTIFIC™ BIOLITE™ brand microwell plates (Catalog No. 12556004; Thermo Fisher Scientific Inc., Waltham, Massachusetts. United States of America). For collection, media was aspirated, and cells were washed once with cold PBS before scraping from plates. Cells were centrifuged at 500×g at 4° C. for 5 minutes and supernatant was removed. Cell pellets were resuspended in cold PBS (1 mL) and centrifuged at 1,400×g at 4° C. for 3 minutes. Supernatant was again removed, and pellets were then snap-frozen in liquid nitrogen and stored at −80° C. until needed.
# Immunofluorescence. Immunofluorescence (IF) of HEK293T cells was performed as previously described in Ciancone et al., 2022. HeLa cells were seeded at 9.0×10^4 in a 24-well plate with 12-mm glass coverslips. The next day, the cells were treated with 25 μM SuTEx probe for 2 hours in DMEM medium without FBS. The cells were then treated with 75 μM NaAsO2 for 30 minutes and fixed with 3% paraformaldehyde in PBS for 15 minutes at room temperature (RT) and washed with PBS twice. The fixed cells were permeabilized with PBST (0.1% Triton X-100) for 15 minutes at room temperature and blocked with 5% goat serum in PBST for 30 minutes at RT. The cells were incubated with anti-G3BP1 antibody H-10 (Catalog No. sc-365338 at 1:200 dilution; Santa Cruz Biotechnology, Inc., Dallas, Texas, United States of America) for 2 hours at RT and washed with PBST (0.1% Tween-20) for 5 minutes three times. Next, cells were incubated with goat anti-mouse Alexa 594 antibody (Catalog No. 115-585-003 at 1:800 dilution; Jackson ImmunoResearch, West Grove, Pennsylvania, United States of America) for 30 minutes at RT. The cells were washed twice with PBST, stained with Hoechst 33342 (Catalog No. H3570 at […]; Thermo Fischer Scientific) in PBST for 5 minutes, and washed with PBS twice for 5 minutes. The coverslips were mounted in PROLONG™ Gold AntiFade Mountant (Catalog No. P36930, Thermo Fisher Scientific) and imaged using NIS Elements AR software and a Nikon Eclipse Ti microscope equipped with a ×100 objective and CMOS camera. […] A CellProfiler pipeline was developed to quantify the number of stress granules under each condition. Briefly, cells were recognized as blue^+ (nuclei) red^+ (G3BP1) objects, and the red^+ granules that meet the shape and size threshold were identified and counted. Cells on the border of linages were excluded from the analysis for more accurate quantification.
# We used immunofluorescence (IF) detection for phenotypic screening of SuTEx compound activity on stress-induced PB and SG levels in cells (FIG. 1B). PBs were induced through glucose deprivation of HEK293T cells and detected by immunofluorescence with anti-enhancer of mRNA-decapping protein 4 (EDC4) as previously described (Kedersha & Anderson, 2007; Ciancone et al., 2022) (~4 vs 2 PBs/cell in −glucose and +glucose conditions, respectively; FIG. 8). EDC4 is an established PB marker for mammalian cells and is important for PB formation (Kedersha & Anderson, 2007; Luo et al., 2018). SGs were induced in HeLa cells by [COMPOUND LEFT OUT] treatments and detected by fluorescent staining with anti-Ras GTPase-activating protein-binding protein 1 (G3BP1) antibody (75 μM [COMPOUND LEFT OUT], 30 min; FIG. 9). G3BP1 foci have been used in previous IF studies to identify SGs in cells (Kedersha & Anderson, 2007). […]
# HNRPK Y72 = target: T1, HNRPK Y72 (Homo sapiens, UniProt P61978); experiment: Competitive ABPP SILAC LC-MS/MS chemical proteomics, HNRPK Y72; conditions: DMSO (light)/ligand (heavy)
# T1 construct: liganded site Y72
# Protocol: (§1) Preparation of SILAC proteomes for LC-MS/MS analysis. SILAC cell proteomes were fractionated to collect the supernatant and normalized to 2.3 mg/mL in PBS. ‘Heavy’ and ‘light’ proteomes were aliquoted (427 μL) and probe-modified proteins were conjugated to desthiobiotin-PEG-3-azide using copper-catalyze azide-alkyne cycloaddition, trypsinized into peptides using Trypsin/Lys-C Mix (Catalog No. V5071; Promega Corporation, Madison, Wisconsin, United States of America), enriched using PIERCE™ Avidin Agarose brand beads (Catalog No. 20219; Thermo Fisher Scientific Inc., Waltham, Massachusetts. United States of America), and prepared for nano-electrospray ionization-LC-MS/MS analysis as previously described in Hahm et al., 2020.
# (§2) Data Analysis—Chemical Proteomics. Identification and analysis of peptides and proteins using LC-MS was accomplished using bioinformatics software and quality control parameter protocols as previously described in Hahm et al., 2020.
# (§3) We performed quantitative liquid-chromatography tandem mass spectrometry (LC-MS/MS) chemical proteomic studies to identify the target protein and binding site(s) of SuTEx fragments with RNP granule modulating activity. […]
# (§4) We detected ~8,700 probe-modified sites (Tyr and Lys) in our aggregate HeLa and HEK293T chemical proteomic analyses. […]
# HSPB1 K123 = target: T2, HSPB1 K123 (Homo sapiens, UniProt P04792); experiment: Competitive ABPP SILAC LC-MS/MS chemical proteomics, HSPB1 K123; conditions: 25 μM, 2 h; HHS-465 100 μM; DMSO (light)/ligand (heavy)
# T2 construct: endogenous in cells; host or cells: SILAC cells (HeLa and HEK293T are named; HeLa inferred for HSPB1/EKT179, as SG modulators were profiled in HeLa)
# Protocol: as §1, §2, §3, §4
# EDC3 Y475 = target: T3, EDC3 Y475 (Homo sapiens, UniProt Q96F86); experiment: Competitive ABPP SILAC LC-MS/MS chemical proteomics, EDC3 Y475; conditions: glucose-deprived HEK293T cells, 25 μM, 2 h
# T3 sequence (Q96F86 1-508): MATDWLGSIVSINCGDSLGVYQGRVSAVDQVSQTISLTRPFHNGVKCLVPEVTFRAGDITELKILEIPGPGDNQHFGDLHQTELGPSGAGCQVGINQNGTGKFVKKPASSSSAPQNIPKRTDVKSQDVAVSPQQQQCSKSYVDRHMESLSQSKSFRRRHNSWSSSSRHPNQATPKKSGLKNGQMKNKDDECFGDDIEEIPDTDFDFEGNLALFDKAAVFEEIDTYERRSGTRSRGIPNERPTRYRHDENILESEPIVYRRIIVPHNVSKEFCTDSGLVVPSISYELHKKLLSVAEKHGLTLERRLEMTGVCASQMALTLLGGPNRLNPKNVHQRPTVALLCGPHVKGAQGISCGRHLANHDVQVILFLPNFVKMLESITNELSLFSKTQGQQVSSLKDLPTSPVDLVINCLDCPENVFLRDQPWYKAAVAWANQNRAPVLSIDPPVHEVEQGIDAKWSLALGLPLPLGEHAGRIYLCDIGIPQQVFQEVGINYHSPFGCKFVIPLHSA
# Protocol: as §1, §2
# We performed quantitative liquid-chromatography tandem mass spectrometry (LC-MS/MS) chemical proteomic studies to identify the target protein and binding site(s) of SuTEx fragments with RNP granule modulating activity. […] SILAC light and heavy cells (HEK293T and HeLa) were treated with experimental conditions used for phenotypic screening including the SuTEx ligand pretreatment (25 μM, 2 h) followed by PB (glucose-deprivation, 15 min) and SG induction (75 μM [COMPOUND LEFT OUT], 30 min). Afterwards, cells were lysed, soluble proteomes treated with HHS-465 SuTEx probe (100 μM, 1 h), a global Tyr/Lys-reactive probe used previously for RNP granule investigations (Ciancone et al., 2022), and samples processed to probe-modified peptides for LC-MS/MS analysis as previously reported (Huang et al., 2021), shown in FIG. 10.
# as §4
# recombinant EDC3 = target: T4, recombinant EDC3 (Homo sapiens, UniProt Q96F86); experiment: Competitive gel-based ABPP, HHS-465 probe labeling of recombinant EDC3 in HEK293T cells; conditions: 25 μM, 2 h (FIG. 4F); 0.1-100 μM for concentration dependence (FIG. 4D); HHS-465 100 μM, 1 h, RT
# T4 construct: FLAG; expressed in transfected cells; host or cells: HEK293T
# T4 sequence (Q96F86 1-508): T3 sequence (Q96F86 1-508)
# Source text: FIGS. 4A-4F. Discovery of a SuTEx ligand for the hyper-reactive EDC3 Y475 site. (FIG. 4A) Overlap of liganded sites from SuTEx PB modulators with reported RNA granule induction-sensitive lysine and tyrosine sites (RISKYs; Ciancone et al., 2022). The five overlapping sites were further compared to previously reported hyper-RISKY sites (Ciancone et al., 2022) resulting in the identification of the tyrosine-475 (Y475) site on EDC3. (FIG. 4B) Representative immunofluorescence images depicting decreased PBs and increased SGs in AHL-030-treated cells under stress conditions. EKT235 is shown as a negative control. See FIGS. 8 and 9 for additional details. (FIG. 4C) Representative MS1 extracted ion chromatograms (EICs) showing EDC3 Y475 (i.e., amino acid 2 of the peptide sequence […]; SEQ ID NO: 1, which corresponds to amino acids 474-500 of the human enhancer of mRNA-decapping protein 3 isoform 1 polypeptide of GENBANK® Accession No. NP_001135915.1) is liganded by AHL-030 but not EKT235 [SILAC ratio or SR>2 for DMSO vehicle (light, red)/SuTEx fragment ligand (heavy, blue) treatment conditions]. Enrichment (HHS-465/DMSO) and 1:1 (HHS-465/HHS-465) controls are shown. SRs are calculated as the integrated area under the curve ratio of light-to-heavy peptide. Data are representative of n=2-3 biologically independent replicates. […] EDC3-expressing HEK293T cells were pretreated with varying concentrations of AHL-030 (0.1-100 μM, 2 hours) followed by lysis and probe labeling of soluble proteomes with HHS-465 (100 μM, 1 h, RT). The in situ IC50 for EDC3 probe labeling inhibition by AHL-030 was estimated to be ~6 μM. […] Data shown are mean±SEM and representative of n=3 biologically independent replicates. […] Western blots comparing recombinant expression of EDC3 (α-FLAG) and loading controls (α-GAPDH) are shown. Data are representative of n=2 biologically independent replicates.
# Among the candidate PB-modulating SuTEx compounds, we focused on AHL-030 because of its PB-inhibitory, SG-enhancing activity in stressed cells and ability to ligand the EDC3 Y475 site (SR >2; FIGS. 4B and 4C). Importantly, we identified a restricted number of reproducibly liganded sites (7 in total) in addition to EDC3 Y475 in chemoproteomic profiling studies of AHL-030 (FIG. 12). We further confirmed AHL-030 as an EDC3 ligand using competitive activity-based protein profiling (ABPP; Grams & Hsu, 2022). Recombinant EDC3-expressing HEK293T cells were treated with a panel of RNP granule modulators including AHL-030 and the negative control compound EKT235 to evaluate structure-activity relationships (SAR, 25 μM compounds, 2 h). Cells were lysed and soluble proteomes labeled with HHS-465 (100 μM, 1 h, RT) followed by CuAAC with rhodamine-azide, SDS-PAGE and in-gel fluorescence scanning. […] Using the in vitro IC50, we calculated the lipophilic efficiency (LipE) of AHL-030 to be ~7, which falls in the range of acceptable lipophilicity in relation to potency (Leeson & Springthorpe, 2007).
# T2 sequence (P04792 whole entry): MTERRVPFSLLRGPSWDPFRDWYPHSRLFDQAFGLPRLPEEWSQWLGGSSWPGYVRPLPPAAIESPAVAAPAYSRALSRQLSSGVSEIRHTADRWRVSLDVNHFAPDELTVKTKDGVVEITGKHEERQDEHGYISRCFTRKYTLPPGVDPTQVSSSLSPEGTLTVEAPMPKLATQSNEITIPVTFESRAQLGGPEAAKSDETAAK
smiles,measurement,setting,value
"O=S(=O)(c1ccc(C(F)(F)F)cc1)n1cc(-c2ccc(F)cc2F)nn1 [EKT166, 4-(2,4-Difluorophenyl)-1-((4-(trifluo•·omethyl)phenyl)sulfonyl)-1H-1,2,3-triazole]",effect on SGs (in words),[1]; 25 μM,enriched activity; also recorded: inhibited SGs
same,inhibition at 25 µM,"[1]; Homo sapiens, read-out: reduction/inhibition of SGs/cell",> 70%
same,"SILAC ratio (SR), HNRPK Y72",HNRPK Y72,> 2
"O=S(=O)(C1CC1)n1cc(-c2cccc(F)c2)nn1 [EKT179, 1-(Cyclopropylsulfonyl)-4-(3-fluorophenyl)-1H-1,2,3-triazole]","SILAC ratio (SR), HSPB1 K123",HSPB1 K123,> 2
"O=S(=O)(C1CC1)n1cc(-c2ccc(-c3ccccc3)cc2)nn1 [EKT235, 4-([1,1′-Biphenyl]-4-yl)-1-(cyclopropylsulfonyl)-1H-1,2,3-triazole]",liganding of EDC3 Y475 (in words),EDC3 Y475,not
same,inhibition of HHS-465 probe labeling of recombinant EDC3 (in words),recombinant EDC3,largely inactive
